{"source": "paper PMC9879991", "about": "“Biomolecular condensates formed by designer minimalistic peptides” (Nature Communications, 2023)", "key": {"[1]": {"test": "Phase diagram in citrate / tris / ammonium bicarbonate buffers", "format": "physicochemical", "conditions": "20 mM citrate (pH 3-7)/tris (pH 7-9)/ammonium bicarbonate (pH 9-12), 0.2 M NaCl, room temperature", "method": "Since this analysis is highly sensitive to pH fluctuation, we also created phase diagrams for all peptides using three different buffers that are optimized for specific pH range: citrate buffer for pH 3–7, tris buffer for pH 7–9 and ammonium bicarbonate for pH 9–12 (Supplementary Fig. 1). While the trend in these phase diagrams is similar to that obtained only in tris buffer, the critical pH for LLPS is lower in citrate buffer for all LLPS-promoting peptides (Supplementary Fig. 1).\n150 μl of 5 mM, 8 mM, 10 mM, 15 mM, 20 mM, and 30 mM peptide solutions were prepared in either 20 mM tris buffer or 20 mM of the following three buffers: citrate buffer for pH 3–7 tris buffer for pH 7–9 and ammonium bicarbonate for pH 9–12, with 0.2 M NaCl. The pH was increased gradually until a turbidity appeared and measured as described below. All measurements were performed at room temperature. Data points represent averages of three independent measurements. Turbidity of 35 μl samples was estimated in triplicates from sample absorbance at λ = 500 nm as described below.\nSupplementary Figure 1. Phase diagram of the peptides as a function of peptide concentration and pH, in different buffers: citrate buffer for pH 3-7, tris buffer for pH 7-9, and ammonium bicarbonate buffer for pH 9-12. 0.2 M NaCl was added to all samples, measurements were obtained at room […]\ntemperature. […] Values represent average pH of n=3 independent measurements, data are presented as mean values +/- SD. […]"}, "[2]": {"test": "Turbidity analysis of peptide LLPS at 20 mM at varying pH", "format": "physicochemical", "conditions": "mean, Figure S8, for NMR experiment", "method": "150 μl of 20 mM peptide solutions were prepared in 20 mM Tris buffer. The pH was adjusted to the desired value of 6, 7, 8, 9, 10, and 11 then the turbidity of 35 μl was measured in triplicates at λ = 500 nm using a BioTek H1 synergy plate reader (purchased from Lumitron, Israel).\nSupplementary Figure 7. CD analysis of peptides at 1 mM with and without NaCl.\nSupplementary Figure 8. a. Turbidity analysis of peptide LLPS at a concentration of 20 mM at varying pH values. WGR-10 contains a Pro/Gln substitution. Each point represents an average of n=3, data are presented as mean values +/- SD b. Optical microscopy images of peptides at 20 mM at pH\n10. Scale bar=50 μm. Source data are provided as a Source Data file. […]"}, "[3]": {"format": "physicochemical", "conditions": "for Apparent diffusion coefficient D, condensed phase (FRAP) / t1/2 of the FRAP recovery: 20 mM peptide, 0.5% FITC-labeled, tris pH 8, 0.2 M NaCl", "method": "Next, we studied whether the peptide sequence affects the material properties of the resulting liquid droplets. For this, we performed FRAP analysis using laser scanning confocal microscopy of 0.5% FITC-labeled peptides. […] The apparent diffusion coefficient for each peptide was calculated as1 Dapp=r^2/t where t is the recovery time. The calculated apparent diffusion coefficients of the peptides were in the 1.7–5.5*10^−14 m^2 s^−1 range (Supplementary Table 1).\nFig. 3 Strength of intermolecular interactions affects peptide droplet dynamics. a–c FRAP analysis of WGR-1, WGR-3, WGR-4, and WGR-5, performed using laser scanning confocal microscopy at 20 mM in Tris buffer at pH 8 with 0.2 M NaCl using 0.5% FITC-labeled peptides. a Representative confocal microscopy images of FRAP for individual droplets. Scale bars = 5 μm. FRAP recovery plots (b), apparent diffusion coefficient (c), and t1/2 of the recovery (d). Data are presented as mean values +/− SD, n = 5 (WGR-1), 4 (WGR-3, WGR-4), and 5 (WGR-5). Source data are provided as a Source Data file.\nFRAP experiments were performed by a Zeiss Zen 900 confocal microscope with ×20/0.8 NA Plan- Apochromat air objective. For each of the peptides, out of a total peptide concentration of 20 mM we used 0.5% FITC-labeled peptide, in tris buffer pH 8 with 0.2 M NaCl. A circular area with radius of 2.5 μm was bleached with a 488 nm laser 100% intensity at 10 iterations; subsequent recovery of the bleached area was recorded with a 488 nm laser. Monitoring of fluorescence recovery in the condensates was analyzed using Zen Blue 3.2 software (Zeiss). Photobleaching correction and recovery time were calculated using OriginLab 9.95. The final FRAP recovery curve is the average of recovery curves collected from n = 4–6 separate droplets."}, "[4]": {"conditions": "FRAP of WGR-1 droplets, replicate 1"}}, "note": "Read-outs that look alike come from different tables or passages of the source. No end group written: not given here.", "data": [{"sequence": "WGRGRGRGWPGVGY [WGR-1]", "values": [{"measurement": "differential NaCl-induced change (20 vs 5 mM), average", "value": 3.5, "unit": "Hz"}, {"measurement": "pH at which turbidity (LLPS) appears", "setting": "[1]; 8 mM peptide, replicate 1", "value": 8.43}, {"measurement": "pH at which turbidity (LLPS) appears", "setting": "[1]; 8 mM peptide, replicate 2", "value": 8.47}, {"measurement": "pH at which turbidity (LLPS) appears", "setting": "[1]; 8 mM peptide, replicate 3", "value": 8.55}, {"measurement": "pH at which turbidity (LLPS) appears", "setting": "[1]; 10 mM peptide, mean of n=3", "value": 6.79}, {"measurement": "pH at which turbidity (LLPS) appears", "setting": "[1]; 10 mM peptide, replicate 1", "value": 6.32}, {"measurement": "pH at which turbidity (LLPS) appears", "setting": "[1]; 10 mM peptide, replicate 2", "value": 7.04}, {"measurement": "pH at which turbidity (LLPS) appears", "setting": "[1]; 10 mM peptide, replicate 3", "value": 7.01}, {"measurement": "pH at which turbidity (LLPS) appears", "setting": "[1]; 15 mM peptide, mean of n=3", "value": 6.34}, {"measurement": "pH at which turbidity (LLPS) appears", "setting": "[1]; 15 mM peptide, replicate 1", "value": 6.41}, {"measurement": "pH at which turbidity (LLPS) appears", "setting": "[1]; 15 mM peptide, replicate 2", "value": 6.41}, {"measurement": "pH at which turbidity (LLPS) appears", "setting": "[1]; 15 mM peptide, replicate 3", "value": 6.2}, {"measurement": "pH at which turbidity (LLPS) appears", "setting": "[1]; 20 mM peptide, mean of n=3", "value": 4.96}, {"measurement": "pH at which turbidity (LLPS) appears", "setting": "[1]; 20 mM peptide, replicate 1", "value": 5.1}, {"measurement": "pH at which turbidity (LLPS) appears", "setting": "[1]; 20 mM peptide, replicate 2", "value": 4.89}, {"measurement": "pH at which turbidity (LLPS) appears", "setting": "[1]; 20 mM peptide, replicate 3", "value": 4.89}, {"measurement": "pH at which turbidity (LLPS) appears", "setting": "[1]; 30 mM peptide, replicate 1", "value": 4.78}, {"measurement": "pH at which turbidity (LLPS) appears", "setting": "[1]; 30 mM peptide, replicate 2", "value": 4.27}, {"measurement": "pH at which turbidity (LLPS) appears", "setting": "[1]; 30 mM peptide, replicate 3", "value": 4.52}, {"measurement": "Turbidity as asorbance at 500 nm", "setting": "[2]; pH 6", "value": 0.0085}, {"measurement": "Turbidity as asorbance at 500 nm", "setting": "[2]; pH 7", "value": 0.019}, {"measurement": "Turbidity as asorbance at 500 nm", "setting": "[2]; pH 8", "value": 0.01867}, {"measurement": "Turbidity as asorbance at 500 nm", "setting": "[2]; pH 9", "value": 0.03567}, {"measurement": "Turbidity as asorbance at 500 nm", "setting": "[2]; pH 10", "value": 1.253}, {"measurement": "Turbidity as asorbance at 500 nm", "setting": "[2]; pH 11", "value": 1.988}, {"measurement": "Apparent diffusion coefficient D, condensed phase (FRAP)", "setting": "[3]; Dapp=r^2/t, mean of n=4-5 droplets", "value": "4.58E-14", "unit": "m^2 s^-1"}, {"measurement": "Apparent diffusion coefficient D, condensed phase (FRAP)", "setting": "[3]; bleached radius 2.5 μm, droplet 1", "value": "4.047e-14", "unit": "m^2 s^-1"}, {"measurement": "t1/2 of the FRAP recovery", "setting": "[3]; droplet 1", "value": 37.1535}, {"measurement": "t1/2 of the FRAP recovery", "setting": "[3]; droplet 2", "value": 29.5706}, {"measurement": "t1/2 of the FRAP recovery", "setting": "[3]; droplet 3", "value": 25.8937}, {"measurement": "t1/2 of the FRAP recovery", "setting": "[3]; droplet 4", "value": 27.3852}, {"measurement": "t1/2 of the FRAP recovery", "setting": "[3]; droplet 5", "value": 32.7563}, {"measurement": "x=t at y=0.5a (t1/2 of FRAP recovery)", "setting": "[3]; FRAP of WGR-1 droplets, from fit, mean of 5 droplets (stdev 4.50361)", "value": 30.5519, "unit": "s"}, {"measurement": "x=t at y=0.95a (time to 95% of plateau recovery)", "setting": "[3]; FRAP of WGR-1 droplets, from fit, mean of 5 droplets (stdev 17.8362)", "value": 138.34, "unit": "s"}, {"measurement": "x=t at y=0.5a (t1/2 of FRAP recovery)", "setting": "[3]; FRAP of WGR-1 droplets, from fit, replicate 1", "value": 37.1535, "unit": "s"}, {"measurement": "x=t at y=0.5a (t1/2 of FRAP recovery)", "setting": "[3]; FRAP of WGR-1 droplets, from fit, replicate 2", "value": 29.5706, "unit": "s"}, {"measurement": "x=t at y=0.5a (t1/2 of FRAP recovery)", "setting": "[3]; FRAP of WGR-1 droplets, from fit, replicate 3", "value": 25.8937, "unit": "s"}, {"measurement": "x=t at y=0.5a (t1/2 of FRAP recovery)", "setting": "[3]; FRAP of WGR-1 droplets, from fit, replicate 4", "value": 27.3852, "unit": "s"}, {"measurement": "x=t at y=0.5a (t1/2 of FRAP recovery)", "setting": "[3]; FRAP of WGR-1 droplets, from fit, replicate 5", "value": 32.7563, "unit": "s"}, {"measurement": "%recovery (mean of fitted plateau a of the FRAP recovery curves)", "setting": "[3]; FRAP of WGR-1 droplets, normalized intensity fitted with parameters a, b, c, mean of 5 droplets (stdev 7.03086)", "value": 78.6308, "unit": "%"}, {"measurement": "D (apparent diffusion coefficient from FRAP), average", "setting": "[3]; FRAP of WGR-1 droplets, average of 5 droplets (stdev 6.05E-15)", "value": "4.58E-14", "unit": "m^2 s^-1"}, {"measurement": "D (apparent diffusion coefficient from FRAP)", "setting": "[3]; [4]", "value": "4.05E-14", "unit": "m^2 s^-1"}, {"measurement": "a (fitted plateau of normalized FRAP recovery)", "setting": "[3]; [4]", "value": 68.4582}, {"measurement": "D condensed phase (FRAP), apparent diffusion coefficient", "setting": "[3]; condensed phase, FRAP, mean, S.D. in next row", "value": "4.52E-14", "unit": "m^2/sec"}]}]}
